This is an account of results in patent publication US20200392116A1, “SUBSTITUTED HETEROCYCLES AS c-MYC TARGETING AGENTS” (NORTHWESTERN UNIVERSITY, priority 2019, published 2020).

The experiment in a line: Potency code of Table 2 (assay not stated).
For `Cn1nc(-c2ccc(Nc3ccc(Cl)cc3)cc2O)cc1C(F)(F)F` [NUCC-0200492], the Potency code entry is on record as “+++ (10-30 +++)”.
On to `Oc1cc(NCc2ccc(Cl)cc2)ccc1-c1cc(C(F)(F)F)[nH]n1` [NUCC-0200493], for which the Potency code entry is “+ (>40 +)”.
For `Cn1nc(-c2ccc(NCc3ccc(Cl)cc3)cc2O)cc1C(F)(F)F` [NUCC-0200494], the Potency code entry is reported as “+ (>40 +)”.
`Oc1ccc(-c2cc(C(F)(F)F)[nH]n2)c(O)c1-c1cc(C(F)(F)F)cc(C(F)(F)F)c1` [NUCC-0200495]: the Potency code entry is “++++ (<10 ++++)”.
As to `COc1ccc(-c2c(-c3ccc(O)cc3O)n[nH]c2C(F)(F)F)cc1OC` [NUCC-0200496], the Potency code entry was “+ (>40 +)”.
In the case of `Nc1ccc(-c2cc(C(F)(F)F)[nH]n2)c(O)c1` [NUCC-0200497], the Potency code entry is “+ (>40 +)”.
As for `Cn1nc(-c2ccc(N)cc2O)cc1C(F)(F)F` [NUCC-0200498], the Potency code entry is recorded as “+ (>40 +)”.
Consider `Oc1cc(OCc2ccc(Cl)cc2)ccc1-c1cc(C(F)(F)F)n(Cc2ccccc2)n1` [NUCC-0200499], for which the Potency code result is listed as “+ (>40 +)”.
Take `Oc1cc(OCc2ccc(Cl)cc2)ccc1-c1cc(C(F)(F)F)nc(-c2cccc(C(F)(F)F)c2)n1` [NUCC-0200500]: the Potency code entry is “+ (>40 +)”.
Take `Oc1cc(OCc2ccc(Cl)cc2)ccc1-c1cc(C(F)(F)F)nc(-c2cc(C(F)(F)F)cc(C(F)(F)F)c2)n1` [NUCC-0200501]: the Potency code entry is on record as “+ (>40 +)”.
For `Nc1nc(-c2ccc(OCc3ccc(Cl)cc3)cc2O)cc(C(F)(F)F)n1` [NUCC-0200502] the value was “+ (>40 +)”.
For `Oc1cc(OCc2ccc(Cl)cc2)ccc1-c1cc(C(F)(F)F)nc(-c2ccc(F)cc2)n1` [NUCC-0200503], the Potency code entry is “+ (>40 +)”.
For the molecule `N#Cc1cccc(-c2c(OCc3ccc(Cl)cc3)ccc(-c3cc(C(N)=O)[nH]n3)c2O)c1` [NUCC-0200557], the Potency code result was “+ (>40 +)”.
As to `Cn1nc(-c2ccc(OCc3ccc(Cl)cc3)c(-c3cccc(C#N)c3)c2O)cc1C(N)=O` [NUCC-0200558], the Potency code result is given as “++++ (<10 ++++)”.
Consider `Oc1cc(Nc2ccc(F)c(F)c2)ccc1-c1cc(C(F)(F)F)[nH]n1` [NUCC-0200559], for which the Potency code entry is recorded as “++ (30-40 ++)”.
In the case of `Cn1nc(-c2ccc(Nc3ccc(F)c(F)c3)cc2O)cc1C(F)(F)F` [NUCC-0200560] it was “+ (>40 +)”; in that of `Oc1cc(Nc2ccc3c(c2)OCO3)ccc1-c1cc(C(F)(F)F)[nH]n1` [NUCC-0200561], “+ (>40 +)”.
Regarding `Cn1nc(-c2ccc(Nc3ccc4c(c3)OCO4)cc2O)cc1C(F)(F)F` [NUCC-0200562], the Potency code entry was “+ (>40 +)”.
Turning to `O=CNc1ccc(Nc2ccc(-c3cc(C(F)(F)F)[nH]n3)c(O)c2)cc1` [NUCC-0200563], the Potency code entry was “+ (>40 +)”.
Turning to `Cn1nc(-c2ccc(Nc3ccc(NC=O)cc3)cc2O)cc1C(F)(F)F` [NUCC-0200564], the Potency code entry was “+ (>40 +)”.
For the molecule `CN1CCN(c2ccc(-c3cc(C(F)(F)F)[nH]n3)c(O)c2)CC1` [NUCC-0200567], the Potency code result is given as “+ (>40 +)”.
For `CN1CCN(c2ccc(-c3cc(C(F)(F)F)n(C)n3)c(O)c2)CC1` [NUCC-0200568], the Potency code entry was “+ (>40 +)”.
Consider `Oc1cc(Nc2ccc(-n3ccnc3)cc2)ccc1-c1cc(C(F)(F)F)[nH]n1` [NUCC-0200569], for which the Potency code entry is “+ (>40 +)”.
As to `Oc1cccc(COc2ccc(Cl)cc2)c1-c1cc(C(F)(F)F)n[nH]1` [NUCC-0200570], the Potency code entry is listed as “+ (>40 +)”.
For the molecule `N#Cc1cccc(-c2c(C(F)(F)F)n[nH]c2-c2cc(OCc3ccc(Cl)cc3)ccc2O)c1` [NUCC-0200571], the Potency code result is given as “+ (>40 +)”.
As to `Cc1ccc(-c2c(C(F)(F)F)n[nH]c2-c2cc(OCc3ccc(Cl)cc3)ccc2O)cc1` [NUCC-0200572], the Potency code entry was “+ (>40 +)”.
Take `Oc1ccc(OCc2ccc(Cl)cc2)cc1-c1cc(C(F)(F)F)n[nH]1` [NUCC-0200573]: the Potency code entry was “+ (>40 +)”.
Turning to `Oc1ccccc1-c1cc(C(F)(F)F)n[nH]1` [NUCC-0200574], the Potency code result was “+ (>40 +)”.
For `Oc1ccc(OCc2ccc(Cl)cc2)cc1-c1[nH]nc(C(F)(F)F)c1-c1ccc(F)cc1` [NUCC-0200575] the value was “++++ (<10 ++++)”; for `Oc1ccc(OCc2ccc(Cl)cc2)cc1-c1[nH]nc(C(F)(F)F)c1-c1ccccc1Cl` [NUCC-0200576], “++++ (<10 ++++)”; for `NC(=O)c1cc(-c2ccc(Nc3ccc(Cl)cc3)cc2O)n[nH]1` [NUCC-0200677], “+ (>40 +)”.
Turning to `N#Cc1cc(-c2ccc(Nc3ccc(Cl)cc3)cc2O)n[nH]1` [NUCC-0200678], the Potency code result is “+ (>40 +)”.
For the molecule `Oc1cc(Oc2ccc(Cl)cc2)ccc1-c1cc(C(F)(F)F)[nH]n1` [NUCC-0200679], the Potency code result was “++ (30-40 ++)”.
In the case of `CCc1ccc(Oc2c(-c3ccc(Nc4ccc(Cl)cc4)cc3O)n[nH]c2C(F)(F)F)cc1` [NUCC-0200680], the Potency code entry was “+ (>40 +)”.
Turning to `CCc1ccc(Oc2c(-c3ccc(Oc4ccc(Cl)cc4)cc3O)n[nH]c2C(F)(F)F)cc1` [NUCC-0200681], the Potency code entry is reported as “++++ (<10 ++++)”.
`CCc1ccc(Oc2c(-c3ccc(O)cc3N)nn(C)c2C(F)(F)F)cc1` [NUCC-0200682]: the Potency code result is “+ (>40 +)”.
For `CCc1ccc(Oc2c(-c3ccccc3O)n[nH]c2C(F)(F)F)cc1` [NUCC-0200683] the value was “+++ (10-30 +++)”; for `CCc1ccc(Oc2c(-c3ccccc3O)nn(C)c2C(F)(F)F)cc1` [NUCC-0200684], “+ (>40 +)”.
For the molecule `Oc1ccccc1C1=NNC(c2ccccc2)C1` (centres unmarked) [NUCC-0200685], the Potency code entry is given as “+ (>40 +)”.
In the case of `Oc1c(-c2cc(C(F)(F)F)n[nH]2)ccc(OCc2ccc(Cl)cc2)c1-c1ccc2c(c1)OCCO2` [NUCC-0200686], the Potency code entry was “+ (>40 +)”.
In the case of `Cn1nc(C(F)(F)F)cc1-c1ccc(O)cn1` [NUCC-0200687], the Potency code result is “+ (>40 +)”.
In the case of `Cn1nc(C(F)(F)F)cc1-c1ccc(N)cn1` [NUCC-0200688] it was “+ (>40 +)”; in that of `Cn1nc(C(F)(F)F)cc1-c1cnc(O)cn1` [NUCC-0200689], “+ (>40 +)”; in that of `Cn1nc(C(F)(F)F)cc1-c1ccc(OCc2ccc(Cl)cc2)cn1` [NUCC-0200690], “+ (>40 +)”.
In the case of `Cn1nc(C(F)(F)F)cc1-c1ccc(NCc2ccc(Cl)cc2)cn1` [NUCC-0200691] it was “+ (>40 +)”; in that of `Cn1nc(C(F)(F)F)cc1-c1cnc(OCc2ccc(Cl)cc2)cn1` [NUCC-0200692], “+ (>40 +)”; in that of `Oc1cc(Nc2ccc(Cl)c(Cl)c2)ccc1-c1cc(C(F)(F)F)[nH]n1` [NUCC-0200721], “++++ (<10 ++++)”.
For `c1ccc(COc2ccccc2-c2nn[nH]c2-c2ccccc2)cc1` [NUCC-0200722], the Potency code result was “+ (>40 +)”.
As to `Cn1nc(C(F)(F)F)cc1-c1ccc(O)c(-c2cc(C(F)(F)F)cc(C(F)(F)F)c2)c1O` [NUCC-0200723], the Potency code entry is “++ (30-40 ++)”.
In the case of `Cn1nc(-c2ccc(O)c(-c3cc(C(F)(F)F)cc(C(F)(F)F)c3)c2O)cc1C(F)(F)F` [NUCC-0200724] it was “+ (>40 +)”; in that of `Oc1c(-c2cc(C(F)(F)F)[nH]n2)ccc(OCc2ccc(Cl)cc2)c1-c1ccc(C(F)(F)F)cc1` [NUCC-0200725], “+ (>40 +)”; in that of `Cn1nc(C(F)(F)F)cc1-c1ccc(OCc2ccc(Cl)cc2)c(-c2ccc(C(F)(F)F)cc2)c1O` [NUCC-0200726], “+ (>40 +)”.
With `Cn1nc(-c2ccc(OCc3ccc(Cl)cc3)c(-c3ccc(C(F)(F)F)cc3)c2O)cc1C(F)(F)F` [NUCC-0200727], the Potency code result was “+ (>40 +)”.
As to `Oc1c(-c2cc(C(F)(F)F)[nH]n2)ccc(OCc2ccc(Cl)cc2)c1-c1ccc(C(F)(F)F)c(Cl)c1` [NUCC-0200728], the Potency code result is recorded as “+ (>40 +)”.
Turning to `Cn1nc(-c2ccc(OCc3ccc(Cl)cc3)c(-c3ccc(C(F)(F)F)c(Cl)c3)c2O)cc1C(F)(F)F` [NUCC-0200729], the Potency code entry is reported as “+ (>40 +)”.
Consider `Oc1c(-c2cc(C(F)(F)F)[nH]n2)ccc(OCc2ccc(Cl)cc2)c1-c1cccc(C(F)(F)F)c1` [NUCC-0200730], for which the Potency code entry is recorded as “+ (>40 +)”.
For `Cn1nc(-c2ccc(OCc3ccc(Cl)cc3)c(-c3cccc(C(F)(F)F)c3)c2O)cc1C(F)(F)F` [NUCC-0200731] the value was “+ (>40 +)”; for `Oc1c(-c2cc(C(F)(F)F)[nH]n2)ccc(OCc2ccc(Cl)cc2)c1-c1ccc(Cl)c(C(F)(F)F)c1` [NUCC-0200732], “+ (>40 +)”; for `Cn1nc(-c2ccc(OCc3ccc(Cl)cc3)c(-c3ccc(Cl)c(C(F)(F)F)c3)c2O)cc1C(F)(F)F` [NUCC-0200733], “+ (>40 +)”.
For the molecule `Oc1c(-c2cc(C(F)(F)F)[nH]n2)ccc(OCc2ccc(Cl)cc2)c1-c1ccc(F)c(C(F)(F)F)c1` [NUCC-0200734], the Potency code entry is “+ (>40 +)”.
As to `Cn1nc(C(F)(F)F)cc1-c1ccc(OCc2ccc(Cl)cc2)c(-c2ccc(F)c(C(F)(F)F)c2)c1O` [NUCC-0200735], the Potency code result is recorded as “+ (>40 +)”.
For the molecule `Cn1nc(-c2ccc(OCc3ccc(Cl)cc3)c(-c3ccc(F)c(C(F)(F)F)c3)c2O)cc1C(F)(F)F` [NUCC-0200736], the Potency code entry is “+ (>40 +)”.
In the case of `Oc1c(-c2cc(C(F)(F)F)[nH]n2)ccc(OCc2ccc(Cl)cc2)c1-c1ccc(C(F)(F)F)cc1Cl` [NUCC-0200737] it was “+ (>40 +)”; in that of `Cn1nc(C(F)(F)F)cc1-c1ccc(OCc2ccc(Cl)cc2)c(-c2ccc(C(F)(F)F)cc2Cl)c1O` [NUCC-0200738], “+++ (10-30 +++)”.
`CCCc1c(OCc2ccc(Cl)cc2)ccc(-c2cc(C(F)(F)F)n[nH]2)c1O` [NUCC-0200740]: the Potency code entry was “+ (>40 +)”.
On to `Cn1cc(-c2ccc(OCc3ccc(Cl)cc3)cn2)c(C(F)(F)F)n1` [NUCC-0200741], for which the Potency code entry was “+ (>40 +)”.
For `Cn1cc(-c2ccc(NCc3ccc(Cl)cc3)cn2)c(C(F)(F)F)n1` [NUCC-0200742] the value was “+ (>40 +)”; for `Cn1cc(-c2ccc(OCc3ccc(Cl)cc3)cc2F)c(C(F)(F)F)n1` [NUCC-0200743], “+ (>40 +)”.
